Results on 2 compounds are retold here after article PMC7684313, “In vitro and in vivo pharmacological activity of minor cannabinoids isolated from Cannabis sativa” (Scientific Reports, 2020).

Assay [1] concerns the target T1, hCB1R (Homo sapiens, UniProt P21554).
T1 construct: expressed in transfected cells; membranes
Briefly: biochemical. The format is binding.

The target in assay [2] is T1, hCB1R. Briefly: cell-based. The format is cell-based. The conditions noted are these: for Emax: CHO, read-out: hCB1R Emax, inhibition of FSK-stimulated cAMP accumulation; for EC50: HitHunter CHO hCB1R cells, 90 min, 95% CI in brackets, read-out: hCB1R EC50, inhibition of FSK-stimulated cAMP accumulation.
In assay [3] the target is T1, hCB1R. The assay can be described thus: cell-based. The conditions noted are these: for Emax: CHO, read-out: hCB1R Emax, recruitment of βarrestin2.
Assay [4] has as its target T2, hCB2R (Homo sapiens, UniProt P34972). Briefly: biochemical.
Assay [5] deals with C57BL/6 mice. Briefly: Tetrad of assays, overall. As to conditions: doses tested 0.1–10 mg/kg i.p.
Assay [6] addresses T2, hCB2R. The assay can be described thus: hCB2R-dependent inhibition of FSK-stimulated cAMP accumulation (HitHunter CHO cells). The format is cell-based. Set-up: expressed in transfected cells; membranes. The conditions noted are these: for Emax: CHO; for EC50: HitHunter CHO hCB2R cells, 90 min, 95% CI in brackets, read-out: hCB2R EC50, inhibition of FSK-stimulated cAMP accumulation.

In assay [7] the target is T2, hCB2R. The assay can be described thus: hCB2R-dependent recruitment of βarrestin2 (PathHunter CHO cells). The format is cell-based. Set-up: expressed in transfected cells; membranes. As to conditions: for Emax: CHO.
The target of assay [8] is T2, hCB2R. The assay can be described thus: Ligand bias between cAMP inhibition and βarrestin2 recruitment at hCB2R (operational model). The format is cell-based. Set-up: expressed in transfected cells; membranes. As to conditions: ∆∆LogR > 0 bias for inhibition of cAMP, < 0 bias for βarrestin2; CP55,940 reference agonist. As for the experimental part:
(§1) Figure 8 Analysis of ligand bias for phytocannabinoids at hCB1R (a) and hCB2R (b).
(§2) Concentration–response curves (CRC) were fit using non-linear regression with variable slope (4 parameters) and used to calculate EC50, Emin, and Emax (GraphPad, Prism, v. 8.0). […] In vivo data are presented as % MPE for catalepsy (MPE = 60 s) and anti-nociception (MPE = 20 s), °C for body temperature, and distance travelled (m) and % time in the centre quadrant in 5 min for OFT. Post-hoc analyses were performed using Tukey’s (one-way ANOVA) test. Homogeneity of variance was confirmed using Bartlett’s test. All data were evaluated for possible outliers using Grubb’s test in GraphPad.
(In general: Activated receptors often draw arrestin, which recruitment assays turn into a signal.)

Assay [9] has as its target T2, hCB2R. Briefly: [^3H]CP55,940 displacement from hCB2R CHO cell membranes. As to conditions: for hCB2R Emin: bottom of the concentration–response curve of [^3H]CP55,940 displacement, %CP55,940 response, mean ± SEM; for extent of [^3H]CP55,940 displacement from hCB2R, in words: concentration range 0.1 nM–10 µM.
For assay [10], the target named is T1, hCB1R. Briefly: Ligand bias between cAMP inhibition and βarrestin2 recruitment at hCB1R (operational model). In kind it is cell-based. The conditions noted are these: ∆∆LogR > 0 bias for inhibition of cAMP, < 0 bias for βarrestin2; CP55,940 reference agonist. As for the experimental part: as §1, §2
The subject of assay [11] is C57BL/6 mice. The assay can be described thus: Nociception in the tail flick assay (tetrad). In kind it is in vivo. The conditions noted are these: 3 mg/kg i.p.; 15 min post-injection. How it is done: (§3) Asterisk colour matches the treatment group assessed.
as §2
A general note: Thermal pain tests record how soon the animal reacts.

In assay [12] the test system is C57BL/6 mice. Briefly: Time in the centre quadrant of the OFT (anxiety-like behaviour). In kind it is in vivo. The conditions noted are these: 10 mg/kg i.p.; 1 h post-injection. As for the experimental part: as §3, §2
The target in another assay is CB1R. The conditions noted are these: read-out: affinity for CB1R (previous reports); cited from earlier work.
The target in a further assay is CB2R. As to conditions: read-out: affinity for CB2R (previous reports); cited from earlier work.
[13] abbreviates: 0.1 nM–10 µM, relative to CP55,940.

“And” between values parts separate entries of the source, which are not always exact repeats. Identical values can stand only once. “Also recorded” adds a separate entry of the source. Like-named read-outs stand apart in the source and are kept apart here. Marks after values point to notes of the source that are not given here.

T2 sequence (P34972 whole entry): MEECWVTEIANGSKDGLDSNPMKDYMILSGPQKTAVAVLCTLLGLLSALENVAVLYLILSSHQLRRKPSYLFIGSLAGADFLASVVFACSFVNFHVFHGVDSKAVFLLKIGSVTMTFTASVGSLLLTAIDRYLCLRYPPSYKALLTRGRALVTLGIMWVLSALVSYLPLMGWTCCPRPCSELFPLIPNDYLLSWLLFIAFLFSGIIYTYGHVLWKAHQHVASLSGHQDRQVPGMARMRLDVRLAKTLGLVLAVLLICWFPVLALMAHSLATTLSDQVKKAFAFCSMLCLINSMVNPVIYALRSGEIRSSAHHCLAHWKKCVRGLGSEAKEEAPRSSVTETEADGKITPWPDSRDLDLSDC
T1 sequence (P21554 whole entry): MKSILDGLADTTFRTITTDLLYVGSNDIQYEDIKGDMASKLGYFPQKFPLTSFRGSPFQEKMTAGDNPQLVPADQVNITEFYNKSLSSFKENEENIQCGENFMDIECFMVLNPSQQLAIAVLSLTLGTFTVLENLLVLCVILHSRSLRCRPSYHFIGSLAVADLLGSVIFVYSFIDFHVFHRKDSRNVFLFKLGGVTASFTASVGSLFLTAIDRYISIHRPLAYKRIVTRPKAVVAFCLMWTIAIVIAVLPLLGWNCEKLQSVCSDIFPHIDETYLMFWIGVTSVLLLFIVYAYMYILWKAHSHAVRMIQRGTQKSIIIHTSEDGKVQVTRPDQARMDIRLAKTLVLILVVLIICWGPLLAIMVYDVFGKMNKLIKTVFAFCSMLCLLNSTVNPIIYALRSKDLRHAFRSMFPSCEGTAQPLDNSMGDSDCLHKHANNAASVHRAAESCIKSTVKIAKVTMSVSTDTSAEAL

A word on the Emax: it is the maximal effect, on the per cent scale that the assay sets. Broadly, the EC50 is the concentration needed to bring the measured effect to its halfway point. Take `C=C(C)[C@@H]1CCC(C)=C[C@H]1c1c(O)cc(CCC)cc1O` [CBDV, cannabidivarin]: the Ki on hCB1R [1] is over 10000 nM; on hCB2R [4] it was 140 nM. Moreover, the “extent of [^3H]CP55,940 displacement from hCB1R, in words” value on hCB1R [1] was “weakly displaced [^3H]CP55,940 at concentrations ≥ 1 µM”. For the same compound, the “hCB1R Emin” value on hCB1R [1] is listed as 96 ± 5.1*^ %. Moreover, the Emax was found to be 68 ± 5.7% at hCB1R [2], 0.96 ± 0.75% on hCB1R [3], 51 ± 12% on hCB2R [6] and 64 ± 13% at hCB2R [7]. In addition, the concentration for a half-maximal effect (EC50) on hCB1R [2] is over 10000 nM; on hCB1R [3] (PathHunter CHO hCB1R cells, 90 min, 95% CI in brackets, read-out: hCB1R EC50, recruitment of βarrestin2), over 10000 nM; on hCB2R [6], 5 nM; at hCB2R [7] (PathHunter CHO hCB2R cells, 90 min, 95% CI in brackets, read-out: hCB2R EC50, recruitment of βarrestin2), over 10000 nM. Moreover, the “in vivo responses in the tetrad assays, in words” value in the assay on C57BL/6 mice [5] is reported as “no significant in vivo responses”. Further, the “activity in hCB2R βarrestin2 recruitment, in words” value on hCB2R [7] (setting [13]) was “demonstrable efficacy at hCB2R in the βarrestin2 recruitment assay, but with very low potency”. The “ligand bias at hCB2R (∆∆LogR), in words” value on hCB2R [8] was “bias for inhibition of cAMP relative to βarrestin2”. Also, the “hCB2R Emin” value at hCB2R [9] is recorded as 22 ± 9.3 %. In addition, the “extent of [^3H]CP55,940 displacement from hCB2R, in words” value on hCB2R [9] was “displaced [^3H]CP55,940 from hCB2R to an extent that was not different from CP55,940”.

In the case of `CCCCCc1cc(O)c(C/C=C(\C)CCC=C(C)C)c(O)c1` [CBG, cannabigerol], the Ki was 1300 nM at hCB1R [1]; over 1000 nM on CB1R; over 1000 nM at CB2R; 500 nM and 490 nM at hCB2R [4]. At hCB1R [1], the “extent of [^3H]CP55,940 displacement from hCB1R, in words” value was “weakly displaced [^3H]CP55,940 at concentrations ≥ 1 µM”. The “hCB1R Emin” value on hCB1R [1] is listed as 49 ± 7.2*^ %. Also, the “agonist activity in hCB1R cAMP inhibition, in words” value at hCB1R [2] is “weak partial agonist”. In addition, the Emax was 68 ± 2.4% on hCB1R [2], 0.41 ± 0.45% on hCB1R [3], 39 ± 11% at hCB2R [6] and 22 ± 1.2% at hCB2R [7]. Further, the EC50 was 120 nM at hCB1R [2] and 130 nM at hCB2R [6]. Further, the “ligand bias at hCB1R (∆∆LogR), in words” value at hCB1R [10] is on record as “bias for the inhibition of cAMP relative to βarrestin2”. Moreover, in the assay on C57BL/6 mice [11], the “anti-nociceptive effect (tail flick latency), in words” value is “weak anti-nociceptive effect; also recorded: small but statistically significant anti-nociceptive effect”. Moreover, the “time in the central quadrant of the OFT (modelled anxiolytic effect), in words” value in the assay on C57BL/6 mice [12] is listed as “anxiolytic-like effect”. On hCB2R [6] (setting [13]), the “agonist activity in hCB2R cAMP inhibition, in words” value was “weak partial agonist”. In addition, on hCB2R [8], the “ligand bias at hCB2R (∆∆LogR), in words” value is “bias for inhibition of cAMP relative to βarrestin2”. The “hCB2R Emin” value at hCB2R [9] amounted to 32 ± 8.1%. For the same compound, at hCB2R [9], the “extent of [^3H]CP55,940 displacement from hCB2R, in words” value was “displaced [^3H]CP55,940 from hCB2R to an extent that was not different from CP55,940”.
